Values belong to the compound of their own block, whether it stands above or below them.
Tests used:
[1] = test system: Hepatitis C virus; test: Antiviral activity against HCV assessed as inhibition of viral replication at 1 uM by replicon based assay; format: functional, Hepacivirus hominis
[2] = species on record: Homo sapiens; test: Inhibition of Pgp (unknown origin) assessed as reduction in pump efflux activity
[3] = test system: Lymphocyte; test: cells
Description: Immunosuppressive activity in lymphocytes (unknown origin) by mixed lymphocyte reaction assay

[4] = test system: Hepatitis C virus; test: microbe, parasite or virus in culture
Description: Antiviral activity against HCV by replicon based assay

[5] = target: Peptidyl-prolyl cis-trans isomerase F, mitochondrial (Homo sapiens, UniProt P30405)
Peptidyl-prolyl cis-trans isomerase F, mitochondrial, sequence (P30405 whole entry): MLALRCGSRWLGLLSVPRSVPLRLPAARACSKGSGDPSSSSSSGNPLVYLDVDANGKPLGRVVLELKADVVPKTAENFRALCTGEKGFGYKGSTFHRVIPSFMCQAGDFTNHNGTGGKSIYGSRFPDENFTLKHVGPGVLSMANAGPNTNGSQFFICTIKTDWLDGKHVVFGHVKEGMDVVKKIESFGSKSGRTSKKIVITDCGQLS
Description: Binding affinity to cyclophilin D (unknown origin)

[6] = target: Peptidyl-prolyl cis-trans isomerase A (Homo sapiens, UniProt P62937)
Peptidyl-prolyl cis-trans isomerase A, sequence (P62937 whole entry): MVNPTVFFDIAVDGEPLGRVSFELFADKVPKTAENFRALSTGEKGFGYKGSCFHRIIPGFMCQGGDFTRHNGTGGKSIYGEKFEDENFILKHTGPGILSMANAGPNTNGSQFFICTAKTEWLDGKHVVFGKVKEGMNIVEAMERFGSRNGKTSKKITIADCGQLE
Description: Binding affinity to cyclophilin A (unknown origin)

Structure (SMILES): CC(C)[C@@H]1NC(=O)C([C@H](C)O)/C=C/c2ccc3ccc(nc3c2)[C@@H](C)OC(=O)[C@@H]2CCCN(N2)C(=O)[C@H](C)NC1=O (some centres not stated)
inhibition at 1 µM [1]: 99%

Structure (SMILES): CC(C)[C@@H]1OC(=O)[C@]2(/C=C/c3ccc4ccc(nc4c3)[C@@H](C)OC(=O)[C@@H]3CCCN(N3)C(=O)[C@H](C)NC1=O)CC[C@H](O)CC2
inhibition at 1 µM [1]: 99%

Other lines, results leading:

INH [2]: 15 µM
Structure (SMILES): C/C=C/C[C@@H](C)[C@@H](O)[C@H]1C(=O)N[C@@H](CC)C(=O)N(C)[C@H](SCCN(C)C)C(=O)N(C)[C@@H](CC(C)(C)O)C(=O)N[C@@H](C(C)C)C(=O)N(C)[C@@H](CC(C)C)C(=O)N[C@@H](C)C(=O)N[C@H](C)C(=O)N(C)[C@@H](CC(C)C)C(=O)N(C)[C@@H](CC(C)C)C(=O)N(C)[C@@H](C(C)C)C(=O)N1C

EC50 [3]: 3000 nM
Structure (SMILES): C/C=C/C[C@@H](C)[C@@H](O)[C@H]1C(=O)N[C@@H](CC)C(=O)N(C)[C@@H](SCCCN2CCOCC2)C(=O)N(C)[C@@H](CC(C)C)C(=O)N[C@@H](C(C)C)C(=O)N(C)[C@@H](CC(C)C)C(=O)N[C@@H](C)C(=O)N[C@H](C)C(=O)N(C)[C@@H](CC(C)C)C(=O)N(C)[C@@H](CC(C)C)C(=O)N(C)[C@@H](C(C)C)C(=O)N1C

EC50 [4]: < 200 nM
Kd [5]: < 60 nM
Kd [6]: < 60 nM
Structure (SMILES): C/C=C/C[C@@H](C)[C@@H](O)[C@H]1C(=O)N[C@@H](CC)C(=O)N(C)[C@@H](C)C(=O)N(C)[C@@H](CC(C)C)C(=O)N(CC=C(C)C)[C@@H](C(C)C)C(=O)N(C)[C@@H](CC(C)C)C(=O)N[C@@H](C)C(=O)N[C@H](C)C(=O)N(C)[C@@H](CC(C)C)C(=O)N(C)[C@@H](CC(C)C)C(=O)N(C)[C@@H](C(C)C)C(=O)N1C

Source: ChEMBL document CHEMBL3352180, “From chemical tools to clinical medicines: nonimmunosuppressive cyclophilin inhibitors derived from the cyclosporin and sanglifehrin scaffolds” (J Med Chem, 2014)
